Measurements: the NIST ThermoML archive (doi:10.1016/j.fluid.2015.03.023)
± gives the expanded uncertainty stated by the source.

Settings: Liquid; for mass density: 298.15 K, 101.33 kPa, Vibrating tube method; for vapor or sublimation pressure: 308.15 K, Ebulliometric method (Recirculating still)

SMILES | mass density | vapor or sublimation pressure
ClCBr [bromochloromethane] | 1921.71 ± 1.1 kg/m3 | 31.05 ± 0.18 kPa
ClC(Cl)(Cl)Br [bromotrichloromethane] | 2002.14 ± 1.2 kg/m3 | 8.428 ± 0.1 kPa
BrCBr [dibromomethane] | 2478.61 ± 1.8 kg/m3 | 9.932 ± 0.1 kPa
CCCCCCC [heptane] | 679.6 ± 0.18 kg/m3 | 9.916 ± 0.1 kPa
